{"source": "paper PMC6645248", "about": "(ACS Omega, 2018)", "key": {"Cyt c": {"target": "Cyt c (Equus caballus, UniProt P00004)", "sequence (P00004 whole entry)": "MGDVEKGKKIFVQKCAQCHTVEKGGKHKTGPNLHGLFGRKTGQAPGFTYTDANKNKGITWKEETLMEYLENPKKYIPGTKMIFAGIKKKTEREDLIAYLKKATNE", "format": "biochemical, equine", "conditions": "for concentration at which an effect on the Cyt c-catalysed reaction starts: [Cyt c] = 15 μg/mL"}, "[1]": {"target": "T1, horseradish peroxidase (HRP) (Armoracia rusticana, UniProt P00433)", "T1 sequence (P00433 31-338 limits assumed)": "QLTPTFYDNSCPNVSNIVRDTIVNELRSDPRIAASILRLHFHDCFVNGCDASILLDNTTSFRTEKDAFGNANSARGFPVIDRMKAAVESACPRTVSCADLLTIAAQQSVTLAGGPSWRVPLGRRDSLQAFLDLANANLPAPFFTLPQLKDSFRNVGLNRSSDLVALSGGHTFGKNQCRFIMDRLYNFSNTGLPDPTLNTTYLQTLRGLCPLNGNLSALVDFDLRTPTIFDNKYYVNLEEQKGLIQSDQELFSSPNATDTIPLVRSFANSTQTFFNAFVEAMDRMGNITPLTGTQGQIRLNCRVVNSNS", "test": "Peroxide-induced inhibition", "format": "biochemical", "conditions": "[LH-] = 750 μM; [HRP] = 2 μg/mL; pH 9"}, "HRP [2]": {"target": "T2, HRP (Armoracia rusticana, UniProt P00433)", "T2 sequence (P00433 31-338 limits assumed)": "T1 sequence (P00433 31-338 limits assumed)", "conditions": "[H2O2] of 17.6 mM; cited from earlier work"}, "HRP [3]": {"target": "T2, HRP", "test": "Enhancement of the HRP-catalysed luminol reaction by aromatic hydrogen donors", "format": "biochemical, horseradish", "conditions": "[H2O2] = 1.1 mM; [LH-] = 750 μM; pH 9"}, "[4]": {"conditions": "[LH-] = 750 μM, [H2O2] = 1.1 mM, pH 9"}}}
{"compound": "N[C@@H](CCC(=O)N[C@@H](CS)C(=O)NCC(=O)O)C(=O)O", "note": "[GSH, glutathione]", "values": [{"measurement": "IC50", "setting": "Cyt c", "value": 41, "unit": "µM"}, {"measurement": "concentration at which an effect on the Cyt c-catalysed reaction starts", "setting": "Cyt c; [4]", "value": "about 10 μM"}, {"measurement": "protection of HRP against high [H2O2] (shift of peroxide inhibition)", "setting": "[1]", "value": "does not exert a protective effect on HRP"}]}
{"compound": "NC(=O)C1=CN([C@@H]2O[C@H](COP(=O)([O-])OP(=O)([O-])OC[C@H]3O[C@@H](n4cnc5c(N)ncnc54)[C@H](O)[C@@H]3O)[C@@H](O)[C@H]2O)C=CC1.[Na+].[Na+]", "note": "[NADH, Nicotinamide–adenine–dinucleotide disodium]", "values": [{"measurement": "concentration at which an effect on the Cyt c-catalysed reaction starts", "setting": "Cyt c; [4]", "value": 80, "unit": "µM"}, {"measurement": "kind of quenching of Cyt c-catalysed luminescence (kinetics)", "setting": "Cyt c; [Cyt c] = 20 μg/mL, [LH-] = 750 μM, [H2O2] = 1.1 mM, pH 9", "value": "permanent luminescence quenching"}]}
{"compound": "Oc1ccc(I)cc1", "note": "[IP, iodophenol]", "values": [{"measurement": "concentration for maximal enhancement", "setting": "HRP [2]", "value": 4, "unit": "mM"}, {"measurement": "concentration for maximal enhancement of the HRP-catalysed reaction", "setting": "HRP [3]", "value": "around 200 μM"}]}
